Data published in PubChem BioAssay AID1963973 (Molecular Pharmacology Branch, DTP, NCI, 2024).

Tested on: 883617-216-R-J1-PDC tumor spheroids, viability
Assay: Anticancer human tumor 883617-216-R-J1-PDC patient-derived bladder carcinoma cell line growth inhibition [PI3K]
Settings: spheroids with HUVEC and MSC; for viability, T/C: stronger effect = lower value
Source text: Combinatorial screen of targeted agents with the PI3K inhibitors inavolisib, alpelisib, duvelisib, and copanlisib in multi-cell type tumor spheroids
A high-throughput screen of multi-cell type tumor spheroids was designed to identify active combinations of targeted small molecules and PI3K pathway inhibitors. Complex spheroids include a stromal component modeled by human endothelial cells (HUVEC) and fibroblasts modeled by human mesenchymal stem cells (MSCs). The concentration ranges selected for each drug and investigational agent were based upon clinically achievable concentrations if the clinical Cmax of the agent was known.
Compounds. The drugs and investigational agents: inavolisib (NSC800729), alpelisib (NSC765974), duvelisib (NSC772469), copanlisib (NSC816437), ipatasertib (NSC767898), afuresertib (NSC778305), talazoparib (NSC767125), sapanisertib (NSC764658), selumetinib (NSC741078), tovorafenib (DAY101, NSC766906), vemurafenib (NSC761431), ravoxertinib (NSC781343), sotorasib (NSC818433), MRTX1133 (NSC 836407), abemaciclib (NSC 768073), palbociclib (NSC758247), venetoclax (NSC 766270), SY5609 (NSC837396), enzalutamide (NSC755605), and darolutamide (NSC825331), were obtained from the National Cancer Institute (NCI) Developmental Therapeutics Program Chemical Repository. The FDA-approved anticancer drug set is available from the NCI Developmental Therapeutics Program. […] The stock solutions were prepared in dimethyl sulfoxide (DMSO, Sigma-Aldrich, St. Louis, MO, cat. D2650) at 800-fold the tested concentration and stored at -70 degrees C prior to their use. All drugs and investigational agents were tested over a range starting from a high concentration at or near the clinical Cmax and decreasing in half-log increments. If the clinical Cmax for an agent had not been determined, the highest concentration tested was 10 microM.
Cell Culture. All cells were maintained in an incubator at 37 degrees C and 5% CO2 with 95% humidity. The PDC lines were cultured according to standard operating procedures established by the NCI PDMR (https://pdmr.cancer.gov/sops/default.htm). All PDCs were thawed and cultured in Matrigel-coated flasks prepared with a working solution of 1X Ham's F-12 nutrient mix, without supplementation (Invitrogen, Waltham, MA, cat. 11765054), 100 U/mL penicillin-streptomycin (Invitrogen, cat. 15140122), and 2.5% Matrigel (Corning Inc., Corning, NY, cat. 354248) for the first three passages. The 354836-022-R-J1-PDC, 475296-252-R-J1-PDC, and 997726-040-R-J2-PDC lines were cultured in 6A media, which includes advanced DMEM/F-12 (Thermo Fisher Scientific, cat. 12634028), 10 mM HEPES (Thermo Fisher Scientific, cat. 15630080), 1X GlutaMAX supplement (Thermo Fisher Scientific, cat. 35050061), 0.1 mg/mL primocin (InvivoGen, San Diego, CA, cat. ant-pm-2), 10% defined fetal bovine serum, heat inactivated (HyClone Laboratories Inc., Logan, UT, cat. SH30070.03HI), 50% L-WRN conditioned media (ATCC, cat. CRL-3276), 1.25 mM N-Acetyl-L-cysteine (Sigma-Aldrich, cat. A9165), 10 mM nicotinamide (Sigma-Aldrich, cat. N0636), 1X B-27 supplement (Thermo Fisher Scientific, cat. 17504044), 1X N-2 supplement (Thermo Fisher Scientific, cat. 17502048), and 10 microM Y-27632 dihydrochloride (Tocris Bioscience, Bristol, United Kingdom, cat. 1254). The 624824-186-R-J2-PDC line was cultured in 6C/Colon 1B media, which includes all 6A media components plus 50 ng/mL human EGF recombinant protein (Thermo Fisher Scientific, cat. PHG0311). […]

[1] = curve of first compound, second compound 0.00316 µM
[2] = curve of first compound, second compound 0.01 µM
[3] = curve of first compound, second compound 0.0316 µM
[4] = curve of first compound, second compound 0.1 µM
[5] = curve of first compound, second compound 0.316 µM
[6] = curve of first compound, second compound 1 µM
[7] = second compound 0.00316 µM, first compound 0.0316 µM
[8] = second compound 0.00316 µM, first compound 0.1 µM
[9] = second compound 0.00316 µM, first compound 0.316 µM
[10] = second compound 0.00316 µM, first compound 1 µM
[11] = second compound 0.00316 µM, first compound 3.16 µM
[12] = second compound 0.00316 µM, first compound 10 µM
[13] = second compound 0.01 µM, first compound 0.0316 µM
[14] = second compound 0.01 µM, first compound 0.1 µM
[15] = second compound 0.01 µM, first compound 0.316 µM
[16] = second compound 0.01 µM, first compound 1 µM
[17] = second compound 0.01 µM, first compound 3.16 µM
[18] = second compound 0.01 µM, first compound 10 µM
[19] = second compound 0.0316 µM, first compound 0.0316 µM
[20] = second compound 0.0316 µM, first compound 0.1 µM
[21] = second compound 0.0316 µM, first compound 0.316 µM
[22] = second compound 0.0316 µM, first compound 1 µM
[23] = second compound 0.0316 µM, first compound 3.16 µM
[24] = second compound 0.0316 µM, first compound 10 µM
[25] = second compound 0.1 µM, first compound 0.0316 µM
[26] = second compound 0.1 µM, first compound 0.1 µM
[27] = second compound 0.1 µM, first compound 0.316 µM
[28] = second compound 0.1 µM, first compound 1 µM
[29] = second compound 0.1 µM, first compound 3.16 µM
[30] = second compound 0.1 µM, first compound 10 µM
[31] = second compound 0.316 µM, first compound 0.0316 µM
[32] = second compound 0.316 µM, first compound 0.1 µM
[33] = second compound 0.316 µM, first compound 0.316 µM
[34] = second compound 0.316 µM, first compound 1 µM
[35] = second compound 0.316 µM, first compound 3.16 µM
[36] = second compound 0.316 µM, first compound 10 µM
[37] = second compound 1 µM, first compound 0.0316 µM
[38] = second compound 1 µM, first compound 0.1 µM
[39] = second compound 1 µM, first compound 0.316 µM
[40] = second compound 1 µM, first compound 1 µM
[41] = second compound 1 µM, first compound 3.16 µM
[42] = second compound 1 µM, first compound 10 µM
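Also: spheroids exposed to agents for 7 days before the viability read.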

In the case of `CC1(C)CCC(Nc2ncc(C(F)(F)F)c(-c3c[nH]c4c(P(C)(C)=O)c(C#N)ccc34)n2)CN1` (stereo unspecified) + COc1c(OCCCN2CCOCC2)ccc2c3n(c(=NC(=O)c4cnc(N)nc4)nc12)CCN3, the IC50 [1] is reported as < 31.6 nM, the IC50 [2] is reported as < 31.6 nM and the IC50 [3] is reported as < 31.6 nM. The IC50 [4] was < 31.6 nM, the IC50 [5] was < 31.6 nM and the IC50 [6] was < 31.6 nM. The viability, T/C [7] was 30.3%, the viability, T/C [8] was 35% and the viability, T/C [9] was 33%. It also gave a viability, T/C [10] of 32.9%, a viability, T/C [11] of 13.7% and a viability, T/C [12] of 0.49%. It also gave a viability, T/C [13] of 31.4%, a viability, T/C [14] of 29.6% and a viability, T/C [15] of 24.3%. It also gave a viability, T/C [16] of 23.4%, a viability, T/C [17] of 15.2% and a viability, T/C [18] of 1.02%. The viability, T/C [19] was 20.4%, the viability, T/C [20] was 22.8% and the viability, T/C [21] was 24.7%. For the same compound, the viability, T/C [22] was 21.6%, the viability, T/C [23] was 9.22% and the viability, T/C [24] was 0.59%. For the same compound, the viability, T/C [25] was 15.2%, the viability, T/C [26] was 12.5% and the viability, T/C [27] was 12.8%. It also gave a viability, T/C [28] of 10.9%, a viability, T/C [29] of 6.57% and a viability, T/C [30] of 1.66%. For the same compound, the viability, T/C [31] was 5.18%, the viability, T/C [32] was 4.62% and the viability, T/C [33] was 4.01%. The viability, T/C [34] was 4.88%, the viability, T/C [35] was 1.53% and the viability, T/C [36] was 0.09%. For the same compound, the viability, T/C [37] was 2.28%, the viability, T/C [38] was 1.83% and the viability, T/C [39] was 1.8%. The viability, T/C [40] was 1.55%, the viability, T/C [41] was 0.47% and the viability, T/C [42] was 0.27%.

For `C=CC(=O)N1CCN(c2nc(=O)n(-c3c(C)ccnc3C(C)C)c3nc(-c4c(O)cccc4F)c(F)cc23)C(C)C1` (stereo unspecified) + COc1c(OCCCN2CCOCC2)ccc2c3n(c(=NC(=O)c4cnc(N)nc4)nc12)CCN3, the IC50 [1] was < 31.6 nM, the IC50 [2] was < 31.6 nM and the IC50 [3] was < 31.6 nM. The IC50 [4] was < 31.6 nM, the IC50 [5] was < 31.6 nM and the IC50 [6] was < 31.6 nM. The viability, T/C [7] was 54.8%, the viability, T/C [8] was 40.3% and the viability, T/C [9] was 44%. For the same compound, the viability, T/C [10] was 46.3%, the viability, T/C [11] was 52.3% and the viability, T/C [12] was 53.9%. For the same compound, the viability, T/C [13] was 46%, the viability, T/C [14] was 34.9% and the viability, T/C [15] was 33.4%. The viability, T/C [16] was 41.1%, the viability, T/C [17] was 43.5% and the viability, T/C [18] was 38.7%. For the same compound, the viability, T/C [19] was 21.4%, the viability, T/C [20] was 19.8% and the viability, T/C [21] was 16.6%. It also gave a viability, T/C [22] of 22.3%, a viability, T/C [23] of 24.1% and a viability, T/C [24] of 24.5%. For the same compound, the viability, T/C [25] was 8.54%, the viability, T/C [26] was 3.86% and the viability, T/C [27] was 6.45%. The viability, T/C [28] was 8.64%, the viability, T/C [29] was 10.2% and the viability, T/C [30] was 9.28%. The viability, T/C [31] was 1.88%, the viability, T/C [32] was 1.7% and the viability, T/C [33] was 1.81%. For the same compound, the viability, T/C [34] was 2.12%, the viability, T/C [35] was 2.85% and the viability, T/C [36] was 2.77%. It also gave a viability, T/C [37] of 1.07%, a viability, T/C [38] of 0.62% and a viability, T/C [39] of 0.69%. The viability, T/C [40] was 0.95%, the viability, T/C [41] was 1.99% and the viability, T/C [42] was 0.95%.

`CC1(C)CCC(Nc2ncc(C(F)(F)F)c(-c3c[nH]c4c(P(C)(C)=O)c(C#N)ccc34)n2)CN1` (stereo unspecified) was tested, and the viability, T/C (compound 0.0316 µM) was 38% [middle of 4 runs], the viability, T/C (compound 0.1 µM) was 31.7% [middle of 4 runs] and the viability, T/C (compound 0.316 µM) was 28.7% [middle of 4 runs]. The viability, T/C (compound 1 µM) was 30% [middle of 4 runs], the viability, T/C (compound 3.16 µM) was 16.9% [middle of 4 runs] and the viability, T/C (compound 10 µM) was 0.37% [middle of 4 runs]. The IC50 (curve of compound) was < 31.6 nM.
